Data reported in patent US20230278983A1, “INDOLE DERIVATIVES AND USES THEREOF FOR TREATING A CANCER” (Universite Claude Bernard Lyon 1, priority 2020, published 2023).
Like-named read-outs stand apart in the source and are kept apart here.

Target: CK2 (Homo sapiens (Human), UniProt P68400)
Experiment: Radiometric CK2 kinase assay
Assay type: biochemical
Settings: for inhibition at 0.1 µM: compound at 0.10 μM; for inhibition at 1 µM: compound at 1 μM
[1] = inhibition of CK2 activity, ATP 10 μM

Chain of CK2 (P68400 whole entry): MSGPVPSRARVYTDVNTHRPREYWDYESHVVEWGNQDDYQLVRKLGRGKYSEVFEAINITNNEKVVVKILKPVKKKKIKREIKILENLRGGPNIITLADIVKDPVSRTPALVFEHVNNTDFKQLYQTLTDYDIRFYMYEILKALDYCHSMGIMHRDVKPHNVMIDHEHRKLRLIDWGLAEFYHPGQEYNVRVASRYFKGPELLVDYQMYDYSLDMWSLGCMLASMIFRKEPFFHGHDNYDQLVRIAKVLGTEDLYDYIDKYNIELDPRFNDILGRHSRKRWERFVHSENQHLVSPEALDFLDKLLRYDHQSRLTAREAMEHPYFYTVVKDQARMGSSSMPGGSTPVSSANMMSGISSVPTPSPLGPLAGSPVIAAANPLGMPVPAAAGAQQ

Q: For `CCOC(=O)c1[nH]c2cc(Cl)ccc2c1-c1cn(CC2CCN(CCNS(=O)(=O)c3ccc(Cl)cc3)CC2)nn1` [AB433, Ethyl 6-chloro-3-(1-((1-(2-((4-chlorophenyl)sulfonamido)ethyl)piperidin-4-yl)methyl)-1H-1,2,3-triazol-4-yl)-1H-indole-2-carboxylate], which IC50 is on record?
A: The IC50 was 8100 nM.

Q: With `CC(C)COC(=O)c1[nH]c2ccc(F)cc2c1-c1cn(CC2CCN(CCNS(=O)(=O)c3ccc(-c4c(O)cccc4F)cc3)CC2)nn1` [AB1402, isobutyl 5-fluoro-3-(1-((1-(2-((2′-fluoro-6′-hydroxy-[1,1′-biphenyl])-4-sulfonamido)ethyl)piperidin-4-yl)methyl)-1H-1,2,3-triazol-4-yl)-1H-indole-2-carboxylate] as the compound, how does the IC50 [1] read?
A: The IC50 was 45 nM.

Q: Which inhibition at 0.1 µM (ATP 10 μM) does the source give for `CCCC(=O)c1[nH]c2ccc(F)cc2c1-c1cn(CC2CCN(CCNS(=O)(=O)Cc3ccc(C(F)(F)F)cc3)CC2)nn1` [AB1307, N-(2-(4-((4-(2-butyryl-5-fluoro-1H-indol-3-yl)-1H-1,2,3-triazol-1-yl)methyl)piperidin-1-yl)ethyl)-1-(4-(trifluoromethyl)phenyl)methanesulfonamide] here?
A: The inhibition at 0.1 µM was 12%.

Q: `CC(=O)c1[nH]c2ccc(F)cc2c1-c1cn(CC2CCN(CCNS(=O)(=O)c3ccc(-c4c(F)cccc4C(F)(F)F)cc3)CC2)nn1` [AB1451, N-(2-(4-((4-(2-acetyl-5-fluoro-1H-indol-3-yl)-1H-1,2,3-triazol-1-yl)methyl)piperidin-1-yl)ethyl)-2′-fluoro-6′-(trifluoromethyl)-[1,1′-biphenyl]-4-sulfonamide] was tested. Which IC50 did it give?
A: Its IC50 is 45 nM.

Q: Which inhibition at 0.1 µM (ATP 10 μM) does the source give for `CC(=O)c1[nH]c2ccc(F)cc2c1-c1cn(C2CCN(CCNS(=O)(=O)c3ccc(CC(C)C)cc3)CC2)nn1` [AB1321, N-(2-(4-(4-(2-acetyl-5-fluoro-1H-indol-3-yl)-1H-1,2,3-triazol-1-yl)piperidin-1-yl)ethyl)-4-isobutylbenzenesulfonamide] here?
A: The inhibition at 0.1 µM was 4%.

Q: How did the IC50 turn out when `CCc1ccc(S(=O)(=O)NCCN2CCC(Cn3cc(-c4c(C(=O)OC(C)C)[nH]c5ccc(Cl)cc45)nn3)CC2)cc1` [AB578, Isopropyl 5-chloro-3-(1-((1-(2-((4-ethylphenyl)sulfonamido)ethyl)piperidin-4-yl)methyl)-1H-1,2,3-triazol-4-yl)-1H-indole-2-carboxylate] was run?
A: Its IC50 is 9200 nM.

Q: How did the IC50 turn out when `CCc1ccc(S(=O)(=O)NCCN2CCC(Cn3cc(-c4c(C(=O)OC(C)C)[nH]c5ccc(F)cc45)nn3)CC2)cc1` [AB577, Isopropyl 3-(1-((1-(2-((4-ethylphenyl)sulfonamido)ethyl)piperidin-4-yl)methyl)-1H-1,2,3-triazol-4-yl)-5-fluoro-1H-indole-2-carboxylate] was run?
A: Its IC50 is 2300 nM.

Q: With `CC(=O)c1cccc(-c2ccc(CN3CCC(Cn4cc(-c5c(C(=O)OCC(C)C)[nH]c6ccc(F)cc56)nn4)CC3)cc2Cl)c1` [AB739, Isobutyl 3-(1-((1-((3′-acetyl-2-chloro-[1,1′-biphenyl]-4-yl)methyl)piperidin-4-yl)methyl)-1H-1,2,3-triazol-4-yl)-5-fluoro-1H-indole-2-carboxylate] as the compound, how does the inhibition at 1 µM (ATP 10 μM) read?
A: The inhibition at 1 µM was 7%.

Q: Which inhibition at 1 µM (ATP 10 μM) does the source give for `COc1ccccc1-c1ccc(CN2CCC(Cn3cc(-c4c(C(=O)OCC(C)C)[nH]c5ccc(F)cc45)nn3)CC2)cc1Cl` [AB689, Isobutyl 3-(1-((1-((2-chloro-2′-methoxy-[1,1′-biphenyl]-4-yl)methyl)piperidin-4-yl)methyl)-1H-1,2,3-triazol-4-yl)-5-fluoro-1H-indole-2-carboxylate] here?
A: The inhibition at 1 µM was 6%.

Q: For `CCC(=O)c1[nH]c2ccc(F)cc2c1-c1cn(CC2CCN(CCNS(=O)(=O)c3ccc(-c4c(OC)cccc4OC)cc3)CC2)nn1` [AB1416, N-(2-(4-((4-(5-fluoro-2-propionyl-1H-indol-3-yl)-1H-1,2,3-triazol-1-yl)methyl)piperidin-1-yl)ethyl)-2′,6′-dimethoxy-[1,1′-biphenyl]-4-sulfonamide], which IC50 is on record?
A: The IC50 was 100 nM.

Q: `CC(C)COC(=O)c1[nH]c2ccc(F)cc2c1-c1cn(CC2CCN(CCNS(=O)(=O)c3ccc(-c4ccccc4CN4CCOCC4)cc3)CC2)nn1` [AB1075] was tested. Which IC50 [1] did it give?
A: Its IC50 is 79 nM.

Q: `Cc1ccc(CS(=O)(=O)NCCN2CCC(Cn3cc(-c4c(C(=O)OCC(C)C)[nH]c5ccc(F)cc45)nn3)CC2)cc1` [AB1210, isobutyl 5-fluoro-3-(1-((1-(2-((p-tolylmethyl)sulfonamido)ethyl)piperidin-4-yl)methyl)-1H-1,2,3-triazol-4-yl)-1H-indole-2-carboxylate] was tested. Which IC50 [1] did it give?
A: Its IC50 is 85 nM.

Q: With `CCOC(=O)c1[nH]c2ccc(Cl)cc2c1-c1cn(CC2CCN(CCNS(=O)(=O)c3ccc(C(F)(F)F)cc3)CC2)nn1` [AB550, Ethyl 5-chloro-3-(1-((1-(2-((4-(trifluoromethyl)phenyl)sulfonamido)ethyl)piperidin-4-yl)methyl)-1H-1,2,3-triazol-4-yl)-1H-indole-2-carboxylate] as the compound, how does the IC50 read?
A: The IC50 was 2240 nM.

Q: With `CC(C)CCOc1ccc(CN2CCC(Cn3cc(-c4c(C(=O)OCC(C)C)[nH]c5ccc(F)cc45)nn3)CC2)cc1Cl` [AB746, Isobutyl 3-(1-((1-(3-chloro-4-(isopentyloxy)benzyl)piperidin-4-yl)methyl)-1H-1,2,3-triazol-4-yl)-5-fluoro-1H-indole-2-carboxylate] as the compound, how does the inhibition at 1 µM (ATP 10 μM) read?
A: Its inhibition at 1 µM is 15%.

Q: How did the inhibition at 0.1 µM (ATP 10 μM) turn out when `CC(=O)c1[nH]c2ccc(F)cc2c1-c1cn(CC2CCN(CCNS(=O)(=O)c3ccc(-c4c(C#N)cccc4C(F)(F)F)cc3)CC2)nn1` [AB1393, N-(2-(4-((4-(2-acetyl-5-fluoro-1H-indol-3-yl)-1H-1,2,3-triazol-1-yl)methyl)piperidin-1-yl)ethyl)-2′-cyano-6′-(trifluoromethyl)-[1,1′-biphenyl]-4-sulfonamide] was run?
A: The inhibition at 0.1 µM was 31%.

Q: With `CC(=O)c1[nH]c2ccc(F)cc2c1-c1cn(CC2CCN(CCNS(=O)(=O)c3ccc(-c4ccccc4F)cc3)CC2)nn1` [AB1390, N-(2-(4-((4-(2-acetyl-5-fluoro-1H-indol-3-yl)-1H-1,2,3-triazol-1-yl)methyl)piperidin-1-yl)ethyl)-2′-fluoro-[1,1′-biphenyl]-4-sulfonamide] as the compound, how does the inhibition at 0.1 µM (ATP 10 μM) read?
A: Its inhibition at 0.1 µM is 36%.

Q: `CC(C)COC(=O)c1[nH]c2ccc(F)cc2c1-c1cn(CC2CCN(S(=O)(=O)N3CCN(Cc4ccccc4)CC3)CC2)nn1` [AB755] was tested. Which inhibition at 1 µM (ATP 10 μM) did it give?
A: The inhibition at 1 µM was 56%.

Q: With `CC(=O)c1[nH]c2ccc(F)cc2c1-c1cn(CC2CCN(CCNS(=O)(=O)c3ccc(-c4ccccc4C(F)(F)F)cc3)CC2)nn1` [AB1394, N-(2-(4-((4-(2-acetyl-5-fluoro-1H-indol-3-yl)-1H-1,2,3-triazol-1-yl)methyl)piperidin-1-yl)ethyl)-2′-(trifluoromethyl)-[1,1′-biphenyl]-4-sulfonamide] as the compound, how does the IC50 read?
A: The IC50 was 23 nM.

Q: For `O=S(=O)(NCCN1CCC(Cn2cc(-c3c[nH]c4ccccc34)nn2)CC1)c1ccc(Cl)cc1` [AB152, N-(2-(4-((4-(1H-Indol-3-yl)-1H-1,2,3-triazol-1-yl)methyl)piperidin-1-yl)ethyl)-4-chlorobenzenesulfonamide], which IC50 is on record?
A: The IC50 was 35000 nM.

Q: Which IC50 does the source give for `CC(=O)c1[nH]c2ccc(F)cc2c1-c1cn(C[C@H]2CCN(CCNS(=O)(=O)c3ccc(CC(C)C)cc3)C2)nn1` [AB1318] here?
A: The IC50 was 300 nM.

Q: How did the inhibition at 1 µM (ATP 10 μM) turn out when `CC(C)COC(=O)c1[nH]c2ccc(F)cc2c1-c1cn(CC2CCN(Cc3ccc(Oc4ccccc4)c(Cl)c3)CC2)nn1` [AB691, Isobutyl 3-(1-((1-(3-chloro-4-phenoxybenzyl)piperidin-4-yl)methyl)-1H-1,2,3-triazol-4-yl)-5-fluoro-1H-indole-2-carboxylate] was run?
A: The inhibition at 1 µM was 3%.

Q: `CC(C)COC(=O)c1[nH]c2ccc(F)cc2c1-c1cn(CC2CCN(CCNS(=O)(=O)c3ccc(-c4cccnc4N4CCCC4)cc3)CC2)nn1` [AB1073, isobutyl 5-fluoro-3-(1-((1-(2-((4-(2-(pyrrolidin-1-yl)pyridin-3-yl)phenyl)sulfonamido)ethyl)piperidin-4-yl)methyl)-1H-1,2,3-triazol-4-yl)-1H-indole-2-carboxylate] was tested. Which IC50 did it give?
A: Its IC50 is 18 nM.

Q: How did the IC50 turn out when `CC(C)COC(=O)c1[nH]c2ccc(F)cc2c1-c1cn(CC2CCN(CCNS(=O)(=O)c3ccc(-c4c(F)cccc4F)cc3)CC2)nn1` [AB1208, isobutyl 3-(1-((1-(2-((2′,6′-difluoro-[1,1′-biphenyl])-4-sulfonamido)ethyl)piperidin-4-yl)methyl)-1H-1,2,3-triazol-4-yl)-5-fluoro-1H-indole-2-carboxylate] was run?
A: The IC50 was 45 nM.

Q: With `CC(C)COC(=O)c1[nH]c2ccc(F)cc2c1-c1cn(CC2CCN(Cc3ccc(-c4cccc5[nH]ccc45)c(C(C)C)c3)CC2)nn1` [AB703, Isobutyl 3-(1-((1-(4-(1H-indol-4-yl)-3-isopropylbenzyl)piperidin-4-yl)methyl)-1H-1,2,3-triazol-4-yl)-5-fluoro-1H-indole-2-carboxylate] as the compound, how does the inhibition at 1 µM (ATP 10 μM) read?
A: Its inhibition at 1 µM is 8%.

Q: How did the IC50 [1] turn out when `CCc1ccc(S(=O)(=O)NCCN2CCC(Cn3cc(-c4c(C(=O)OCCN)[nH]c5ccc(F)cc45)nn3)CC2)cc1` [AB614, 2-Aminoethyl 3-(1-((1-(2-((4-ethylphenyl)sulfonamido)ethyl)piperidin-4-yl)methyl)-1H-1,2,3-triazol-4-yl)-5-fluoro-1H-indole-2-carboxylate] was run?
A: The IC50 was 3240 nM.

Q: How did the IC50 turn out when `CC(C)COC(=O)c1[nH]c2ccc(F)cc2c1-c1cn(CC2CCN(CCNS(=O)(=O)c3ccc4c(c3)OCCCO4)CC2)nn1` [AB1072, isobutyl 3-(1-((1-(2-((3,4-dihydro-2H-benzo[b][1,4]dioxepine)-7-sulfonamido)ethyl)piperidin-4-yl)methyl)-1H-1,2,3-triazol-4-yl)-5-fluoro-1H-indole-2-carboxylate] was run?
A: Its IC50 is 100 nM.

Q: `CCOC(=O)c1[nH]c2ccc(F)cc2c1-c1cn(CC2CCN(CCNS(=O)(=O)c3ccc(C(F)(F)F)cc3)CC2)nn1` [AB529, Ethyl 5-fluoro-3-(1-((1-(2-((4-(trifluoromethyl)phenyl)sulfonamido)ethyl)piperidin-4-yl)methyl)-1H-1,2,3-triazol-4-yl)-1H-indole-2-carboxylate] was tested. Which IC50 did it give?
A: Its IC50 is 700 nM.

Q: How did the IC50 [1] turn out when `O=C(O)c1[nH]c2cc(Cl)ccc2c1-c1cn(CC2CCN(CCNS(=O)(=O)c3ccc(Cl)cc3)CC2)nn1` [AB202, 6-Chloro-3-(1-((1-(2-((4-chlorophenyl)sulfonamido)ethyl)piperidin-4-yl)methyl)-1H-1,2,3-triazol-4-yl)-1H-indole-2-carboxylic acid] was run?
A: The IC50 was 12100 nM.

Q: With `CC(C)C(=O)c1[nH]c2ccc(F)cc2c1-c1cn(CC2CCN(CCNS(=O)(=O)c3ccc(-c4cccnc4Cl)cc3)CC2)nn1` [AB1282, 4-(2-chloropyridin-3-yl)-N-(2-(4-((4-(5-fluoro-2-isobutyryl-1H-indol-3-yl)-1H-1,2,3-triazol-1-yl)methyl)piperidin-1-yl)ethyl)benzenesulfonamide] as the compound, how does the inhibition at 0.1 µM (ATP 10 μM) read?
A: Its inhibition at 0.1 µM is 15%.
